As a reminder, the EC50 is the concentration at which the effect is half-maximal. A high value points to weaker potency.

SMILES strings stand for the structures. Where a name gives a salt, the structure may show the parent alone.

For the assay, the target named is T1, human GPR120 (Homo sapiens, UniProt Q5NUL3).
T1 construct: expressed in transfected cells; host or cells: CHO-K1
T1 sequence (Q5NUL3 1-361): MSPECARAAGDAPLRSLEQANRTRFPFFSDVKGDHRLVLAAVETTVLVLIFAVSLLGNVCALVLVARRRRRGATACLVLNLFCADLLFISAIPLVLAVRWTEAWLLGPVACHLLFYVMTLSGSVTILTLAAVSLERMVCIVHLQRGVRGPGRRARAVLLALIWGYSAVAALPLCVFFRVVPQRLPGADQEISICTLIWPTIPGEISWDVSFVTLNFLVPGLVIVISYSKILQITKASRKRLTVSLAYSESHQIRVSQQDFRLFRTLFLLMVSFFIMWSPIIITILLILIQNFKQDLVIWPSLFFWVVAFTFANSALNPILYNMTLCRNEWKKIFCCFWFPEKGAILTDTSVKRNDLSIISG
Nature of the assay: Human GPR120 IP1 assay (inositol phosphate turnover). Format: cell-based. As to conditions: IP1 accumulation in CHO-K1 cells stably expressing the short form of human GPR120. The procedure, abridged:
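Human receptor (short form) was stably expressed in CHO-K1 cells and rat receptor in HEK293 cells. Cells were exposed to compound for 60 min at 37° C in kit stimulation buffer. IP1 was quantified by HTRF 665/620 nm ratio against a standard curve, normalized to a reference compound, with EC50 from 4-parameter fits.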
`Oc1cc(-c2cnc(O[C@H]3C[C@@H](Oc4ccc(F)c(C(F)(F)F)c4)C3)cn2)on1` [Example 70, 5-[5-({cis-3-[4-fluoro-3-(trifluoromethyl)phenoxy]cyclobutyl}oxy)pyrazin-2-yl]isoxazol-3-ol]: the EC50 is 24 nM. This counts as double-digit nanomolar. Under `Cc1cc(O[C@H]2C[C@@H](Oc3cnc(-c4cc(O)no4)cn3)C2)ccc1F` [Example 71, 5-(5-{[cis-3-(4-fluoro-3-methylphenoxy)cyclobutyl]oxy}pyrazin-2-yl)isoxazol-3-ol] stands 38 nM; under `Oc1cc(-c2ccc(O[C@H]3C[C@@H](OCc4cccc(C(F)(F)F)c4)C3)nc2)on1` [Example 74, 5-(3-hydroxyisoxazol-5-yl)-2-[(cis-3-{[3-(trifluoromethyl)benzyl]oxy}cyclobutyl)oxy]pyridinium trifluoroacetate], 11 nM. The result for `Cc1nc(C(F)(F)F)c(CO[C@H]2C[C@@H](Oc3ccc(-c4cc(O)no4)cn3)C2)s1` [Example 75, 5-(3-hydroxyisoxazol-5-yl)-2-[(cis-3-{[2-methyl-4-(trifluoromethyl)-1,3-thiazol-5-yl]methoxy}cyclobutyl)oxy] pyridinium trifluoroacetate] reads 149 nM; that for `Oc1cc(-c2ccc(O[C@H]3C[C@@H](COc4ccccc4)C3)nc2)on1` [Example 82, 5-(3-hydroxyisoxazol-5-yl)-2-{[cis-3-(phenoxymethyl)cyclobutyl]oxy}pyridinium chloride], 7.1 nM. As for `Oc1cc(-c2cnc(O[C@H]3C[C@@H](COc4ccccc4)C3)cn2)on1` [Example 83, sodium 5-(5-{[cis-3-(phenoxymethyl)cyclobutyl]oxy}pyrazin-2-yl)isoxazol-3-olate], the EC50 was found to be 17 nM. Molecule `Oc1cc(-c2cnc(O[C@H]3C[C@@H](COc4cccc(F)c4)C3)cn2)on1` [Example 84, sodium 5-[5-({cis-3-[(3-fluorophenoxy)methyl]cyclobutyl}oxy)pyrazin-2-yl]isoxazol-3-olate] displayed an EC50 of 12 nM. Under `Oc1cc(-c2cnc(O[C@H]3C[C@@H](COc4ccccc4F)C3)cn2)on1` [Example 85, sodium 5-[5-({cis-3-[(2-fluorophenoxy)methyl]cyclobutyl}oxy)pyrazin-2-yl]isoxazol-3-olate] stands 25 nM; under `CCOc1cc([C@]2(F)C[C@@H](Oc3ccc(-c4cc(O)no4)cn3)C2)ccn1` [Example 86, sodium 5-(6-{[cis-3-(2-ethoxypyridin-4-yl)-3-fluoro-cyclobutyl]oxy}pyridin-3-yl)isoxazol-3-olate], 26 nM; under `Oc1cc(-c2ccc(O[C@H]3C[C@](F)(c4ccnc(OC5CC5)c4)C3)nc2)on1` [Example 90], 22 nM. `CC1[C@@H](Oc2cnc(-c3cc(O)no3)cn2)C[C@H]1c1ccccc1` (stereo partly drawn) [Example 92, 5-(5-{[(1S,3R)-2-methyl-3-phenylcyclobutyl]oxy}pyrazin-2-yl)isoxazol-3-ol] came in with an EC50 of 17 nM.

Regarding `CC1(c2ccc(Cl)cc2)CC(Oc2cnc(-c3cc(O)no3)cn2)C1` (stereo not drawn) [Example 93, 5-(5-{[3-(4-chlorophenyl)-3-methylcyclobutyl]oxy}pyrazin-2-yl)isoxazol-3-ol], it took 215 nM to reach a half-maximal effect (EC50). This EC50 lies about 13-fold higher than the previous one.

As to `Oc1cc(-c2ccc(O[C@H]3C[C@@](F)(c4ccc(C(F)(F)F)cn4)C3)nc2)on1` [Example 97, 2-(trans-1-fluoro-3-{[5-(3-hydroxyisoxazol-5-yl)pyridin-2-yl]oxy}cyclobutyl)-5-(trifluoromethyl)pyridinium trifluoroacetate], the 50% effective concentration (EC50) turned out to be 22 nM. Against the preceding molecule, the EC50 is about 9.8-fold lower. The result for `CCOc1cc([C@]2(F)C[C@H](Oc3ccc(-c4cc(O)no4)cn3)C2)ccn1` [Example 98, Sodium 5-(6-{[trans-3-(2-ethoxypyridin-4-yl)-3-fluorocyclobutyl]oxy}pyridin-3-yl)isoxazol-3-olate] reads 15 nM.

In the case of `CC(C)Oc1cc([C@]2(F)C[C@@H](Oc3ccc(-c4cc(O)no4)cn3)C2)ccn1` [Example 99, sodium 5-[6-({cis-3-fluoro-3-[2-(propan-2-yloxy)pyridin-4-yl]cyclobutyl}oxy)pyridin-3-yl]isoxazol-3-olate], the EC50 was 17 nM. The result for `CC(C)Oc1cc([C@]2(F)C[C@@H](Oc3cnc(-c4cc(O)no4)cn3)C2)ccn1` [Example 100, sodium 5-[5-({cis-3-fluoro-3-[2-(propan-2-yloxy)pyridin-4-yl]cyclobutyl}oxy)pyrazin-2-yl]isoxazol-3-olate] reads 153 nM; that for `CC(C)Oc1cc([C@]2(F)C[C@H](Oc3cnc(-c4cc(O)no4)cn3)C2)ccn1` [Example 101, sodium 5-[5-({trans-3-fluoro-3-[2-(propan-2-yloxy)pyridin-4-yl]cyclobutyl}oxy)pyrazin-2-yl]isoxazol-3-olate], 538 nM; that for `Oc1cc(-c2ccc(O[C@H]3C[C@@](F)(c4ccc(C(F)F)c(F)c4)C3)nc2)on1` [Example 103, 5-[6-({trans-3-[4-(difluoromethyl)-3-fluorophenyl]-3-fluorocyclobutyl}oxy)pyridin-3-yl)isoxazol-3-ol], 40 nM. In turn, `Oc1cc(-c2ccc(O[C@H]3C[C@@](F)(c4ccc5c(c4)OC(F)(F)O5)C3)nc2)on1` [Example 104, ammonium 5-(6-{[trans-3-(2,2-difluoro-1,3-benzodioxol-5-yl)-3-fluorocyclobutyl]oxy}pyridin-3-yl)isoxazol-3-olate] returned a concentration for a half-maximal effect (EC50) of 60 nM. With `Oc1cc(-c2cnc(O[C@H]3C[C@@](F)(c4nc5ccccc5s4)C3)cn2)on1` [Example 105, ammonium 5-(5-{[trans-3-(1,3-benzothiazol-2-yl)-3-fluorocyclobutyl]oxy}pyrazin-2-yl)isoxazol-3-olate], the response was half-maximal at 237 nM (EC50). Under `Oc1cc(-c2cnc(O[C@H]3C[C@](F)(c4cc(OC(F)(F)F)ccc4F)C3)cn2)on1` [Example 106, 5-[5-({cis-3-fluoro-3-[2-fluoro-5-(trifluoromethoxy)phenyl]cyclobutyl}oxy)pyrazin-2-yl]isoxazol-3-ol] stands 91 nM; under `Oc1cc(-c2cnc(O[C@H]3C[C@@](F)(c4cc(C(F)(F)F)ccc4F)C3)cn2)on1` [Example 107, 5-[5-({trans-3-fluoro-3-[2-fluoro-5-(trifluoromethyl)phenyl]cyclobutyl}oxy)pyrazin-2-yl]isoxazol-3-ol], 215 nM. Under `Oc1cc(-c2cnc(O[C@H]3C[C@@](F)(c4ccc(Cl)cc4)C3)cn2)on1` [Example 108, 5-(5-{[trans-3-(4-chlorophenyl)-3-fluorocyclobutyl]oxy}pyrazin-2-yl)isoxazol-3-ol] stands 14 nM; under `Oc1cc(-c2cnc(O[C@H]3C[C@@H](c4ccc(Cl)cc4)C3)nc2)on1` [Example 109, 5-(2-{[cis-3-(4-chlorophenyl)cyclobutyl]oxy}pyrimidin-5-yl)isoxazol-3-ol], 11 nM; under `Oc1cc(-c2cnc(O[C@H]3C[C@@H](c4ccc(F)cc4)C3)nc2)on1` [Example 112, 5-(2-{[cis-3-(4-fluorophenyl)cyclobutyl]oxy}pyrimidin-5-yl)isoxazol-3-ol], 647 nM.

Molecule `Oc1cc(-c2cnc(OC3CC(c4ccc5c(c4)OC(F)(F)O5)C3)nc2)on1` (stereo not drawn) [Example 113, sodium 5-(2-{[3-(2,2-difluoro-1,3-benzodioxol-5-yl)cyclobutyl]oxy}pyrimidin-5-yl)isoxazol-3-olate] had an EC50 of 41 nM. Under `Cc1ccc([C@H]2C[C@@H](Oc3ncc(-c4cc(O)no4)cn3)C2)c(F)c1` [Example 114, sodium 5-(2-{[cis-3-(2-fluoro-4-methylphenyl)cyclobutyl]oxy}pyrimidin-5-yl)isoxazol-3-olate] stands 191 nM.

These data come from patent US10864211B2, “Hydroxy isoxazole compounds useful as GPR120 agonists” (Merck Sharp & Dohme Corp., priority 2016, dated 2020).
